Measurements published in patent publication US20060286054A1, “PHARMACEUTICAL COMPOSITIONS FOR THE TREATMENT OF PSORIASIS” (Apollo Pharmaceutical, Inc., priority 2005, published 2006).
Several values for one entry are separate records, joined by “and”; a condition that tells them apart may be missing. Equal values may be shown once.

What was measured:
keratinocyte = details: Muller et al. 1995; cited from earlier work
THP-1 cells = experiment: MTT assay of THP-1 cell proliferation; type: cell-based; details: titration
Description: THP-1 cells were sub-cultured in 96 well culture plates at a density of 20,000 cells/well. LPS (100 ng/ml) and titrating amounts of Psorberine and/or Calcipotriol were then added to triplicate wells. The cells were cultured for 5 days, at which point the culture plates were centrifuged, the culture media removed and saved, and fresh media containing 0.863 mg/ml MTT added. After culturing for an additional 4 h, the plates were centrifuged again, the media removed from the formazan crystals and the well contents solubilized in DMSO. The absorbance of each well at 560 nm was measured. The data were normalized to the averaged results of the control wells receiving water. The culture supernatants were tested in ELISA (Bio-Source, International) for IL-8, TNF-α and IL-1β content. The effect of Psorberine on THP-1 cell proliferation was examined. […] The increase in the percentage of control seen in the MTT assay at the high concentrations of Psorberine (1:10 and 1:20 dilutions), is most probably due to the strong coloring of the compound (dark green). There is a very high OD recovered from MTT assay upon incubating […] cells with these dilutions of Psorberine.

Peripheral blood T cell = experiment: T cell proliferation measured by the MTT assay; type: cell-based; details: for MTT % of Control: T cells, W/LPS
Description: Twenty ml aliquots of heparinized whole blood were subjected to density gradient centrifugation on Ficoll Hypaque. The buffy coat layers representing peripheral blood mononuclear cells (PBMCs) containing lymphocytes and monocytes were washed once, resuspended in RPMI 1640 containing 10% fetal calf sera and then depleted of B cells and monocytes with a T cell enrichment column (R&D Systems). The T cell preparations were centrifuged, resuspended in 5 ml of incomplete RPMI and counted using a hemocytometer. Aliquots of each cell preparation (40,000 cells in 200 μl of incomplete RPMI) were placed in the wells of 96 well culture plates and cultured overnight at 37° C. under 5% CO2. Twenty five μl of RPMI containing 1 μg/ml PMA and 8 μg/ml ionomycin. After culturing for 24 h, the plates were centrifuged at 1200 rpm for 10 min and the culture supernatants removed and saved. Two hundred μl of complete RPMI containing 0.86 mg/ml MTT was added to each well and the plates cultured for an additional 4 h. The plates were centrifuged again, the media removed and the well contents solubilized in 100% DMSO. The optical density at 560 nm of each well was determined and the averaged mean of the duplicate well calculated. The background OD560 value, determined from control wells receiving media containing no MTT, was subtracted from these values and the data normalized to that of the control wells (0 nM compound). IL-2 secretion by activated T cells was determined in the culture supernatants of these cells. The supernatants were assessed using the R&D Biosystems ELISA kit for human IL-2.

IL-2 [1] = experiment: IL-2 release from THP-1 cells; type: cell-based; details: titration curve centered at ˜5 nM
IL-2 [2] = experiment: IL-2 secretion by peripheral blood T cells activated with PMA plus ionomycin (ELISA); type: cell-based, human; details: 24 h, between 0.01-10 nM
Description: Twenty ml aliquots of heparinized whole blood were subjected to density gradient centrifugation on Ficoll Hypaque. The buffy coat layers representing peripheral blood mononuclear cells (PBMCs) containing lymphocytes and monocytes were washed once, resuspended in RPMI 1640 containing 10% fetal calf sera and then depleted of B cells and monocytes with a T cell enrichment column (R&D Systems). The T cell preparations were centrifuged, resuspended in 5 ml of incomplete RPMI and counted using a hemocytometer.
Aliquots of each cell preparation (40,000 cells in 200 μl of incomplete RPMI) were placed in the wells of 96 well culture plates and cultured overnight at 37° C. under 5% CO2. […] The optical density at 560 nm of each well was determined and the averaged mean of the duplicate well calculated. The background OD560 value, determined from control wells receiving media containing no MTT, was subtracted from these values and the data normalized to that of the control wells (0 nM compound). IL-2 secretion by activated T cells was determined in the culture supernatants of these cells. The supernatants were assessed using the R&D Biosystems ELISA kit for human IL-2.
The release of IL-2 was also determined 24 h after stimulating peripheral blood T cells with PMA plus ionomycin, in the presence or absence of Psorberine and/or Calcipotriol. […]

Jurkat cells [3] = experiment: In vitro chemotaxis assay of Jurkat cells towards SDF-1α; type: cell-based; details: for Cell Number (migrated cells per filter) / Migration Index (MI): filters 1-4
Description: Jurakt cells ere grown in cultures in the presence of complete RPMI media. These cells were split one day prior to the assay. More than 99% viable cells were used in the chemotaxis assay. SDF-1α was purchased from Peprotech, Inc.
96 well plate chemotaxis chambers with a pore size of […] (ChemoTx, Neuro Probe, Inc.) were used in this assay. In the lower wells 30 μl of either RPMI plus 0.1% BSA (control), or 30 μl containing 1 μg/ml SDF-1α (positive chemotaxis) were placed. In other wells, 24 μl containing 1 μg/ml SDF-1α was added to 6 μl of media containing the appropriate concentrations of Psorberine, Calcipotriol or their combination. In the upper wells, 20 μl of media containing 20,000 cells (1×10^6/ml) either alone or in combinations with the compounds were placed. After 2 h, the upper part of the filters was washed with coton swaps to remove the non-migrating cells, and the filters were fixed with absolute methanol for 3 minutes. After this, the filters were stained with 15% Giemsa stain for 7.5 min. The filters were washed three times with distilled water, and the cells migrating to the lower wells were counted under light micriscope. For control (cells migrating in the absence of the chemoattractant), 7 filters were used, whereas 4 filters were used in the experimental conditions. Migration Index (MI) was calculated by dividing the number of cells migrating in the experimental filters by the average number of cells migrating in the control filters.

Jurkat cells [4] = experiment: Viability of Jurkat cells (Trypan blue exclusion); type: cell-based
Description: The chemotaxis assay was corroborated by determining the viability of Jurkat cells. Viability of these cells either incubated in culture medium alone or with Psorberine or Calcipotriol under the same conditions as in the chemotaxis assay, was done by distinguishing dead from viable cells in the Trypan blue exclusion test. Viability of THP-1 cells was determined after incubating these cells with various concentrations of Psorberine for 4 h.

[5] = 1 μg/ml SDF-1α + 20 nM Calcipotriol
[6] = 1 μg/ml SDF-1α + 80 nM Calcipotriol
[7] = 1 μg/ml SDF-1α + 160 nM Calcipotriol

COc1ccc2cc3[n+](cc2c1OC)CCc1cc2c(cc1-3)OCO2 [berberine]
keratinocyte growth in vitro (keratinocyte): inhibits

C=C1/C(=C\C=C2/CCC[C@]3(C)[C@@H]([C@H](C)/C=C/[C@@H](O)C4CC4)CC[C@@H]23)C[C@@H](O)C[C@@H]1O [Calcipotriol, calcipotriol]
effect of titrating levels on THP-1 cell proliferation (THP-1 cells): multi-phasic, with stimulation seen above concentrations of 1 nM | MTT % of Control (Peripheral blood T cell; concentration 0.050 (unit not given)): 109.0164% | MTT % of Control (Peripheral blood T cell; concentration 0.100 (unit not given)): 88.52% | MTT % of Control (Peripheral blood T cell; concentration 0.500 (unit not given)): 107.377% | MTT % of Control (Peripheral blood T cell; concentration 1.000 (unit not given)): 99.18% | MTT % of Control (Peripheral blood T cell; concentration 5.000 (unit not given)): 78.69% | MTT % of Control (Peripheral blood T cell; concentration 10.000 (unit not given)): 116.3934% | MTT % of Control (Peripheral blood T cell; concentration 50.000 (unit not given)): 113.1148% | MTT % of Control (Peripheral blood T cell; concentration 100.000 (unit not given)): 83.61% | T cell proliferation (Peripheral blood T cell; absence or presence of PMA plus ionomycin): Significant differences in T cell proliferation were not observed | IL-2 release (IL-2 [1]): slight increase | reduction of IL-2 concentration (IL-2 [2]): 40-50% | Cell Number (migrated cells per filter) (Jurkat cells [3]; [5]): 240 and 200 and 155 and 170 | Migration Index (MI) (Jurkat cells [3]; [5]): 5.7 and 4.8 and 3.7 and 4.1 | Cell Number (migrated cells per filter) (Jurkat cells [3]; [6]): 240 and 160 and 180 and 220 | Migration Index (MI) (Jurkat cells [3]; [6]): 5.7 and 3.8 and 4.3 and 5.2 | Cell Number (migrated cells per filter) (Jurkat cells [3]; [7]): 200 and 198 and 150 and 205 | Migration Index (MI) (Jurkat cells [3]; [7]): 4.8 and 4.7 and 3.6 and 4.9 | SDF-1α-induced Jurkat cell chemotaxis (Jurkat cells [3]; between 20-160 nM): did not affect | # Dead Cells (Jurkat cells [4]; 20 nM Calcipotriol): 178 | # Viable Cells (Jurkat cells [4]; 20 nM Calcipotriol): 18 | % Viability (Jurkat cells [4]; 20 nM Calcipotriol): 91% | # Dead Cells (Jurkat cells [4]; 80 nM Calcipotriol): 175 | # Viable Cells (Jurkat cells [4]; 80 nM Calcipotriol): 17 | % Viability (Jurkat cells [4]; 80 nM Calcipotriol): 91% | # Dead Cells (Jurkat cells [4]; 160 nM Calcipotriol): 134 | # Viable Cells (Jurkat cells [4]; 160 nM Calcipotriol): 11 | % Viability (Jurkat cells [4]; 160 nM Calcipotriol): 92%
